Source: ChEMBL document CHEMBL3991601, “The target landscape of clinical kinase drugs” (Science, 2017)
pKd: −log10 of the molar value. Activity calls are given as the source filed them. Cut-off read from the data, not from the text of the source, for most assays here: actives have a measured Kd and inactives only a lower limit.

What was measured:
[1] = biological target: cAMP-dependent protein kinase catalytic subunit alpha (Homo sapiens, UniProt P17612)
[2] = biological target: Mitogen-activated protein kinase kinase kinase kinase 5 (Homo sapiens, UniProt Q9Y4K4)
Sequence of Mitogen-activated protein kinase kinase kinase kinase 5 (Q9Y4K4 whole entry): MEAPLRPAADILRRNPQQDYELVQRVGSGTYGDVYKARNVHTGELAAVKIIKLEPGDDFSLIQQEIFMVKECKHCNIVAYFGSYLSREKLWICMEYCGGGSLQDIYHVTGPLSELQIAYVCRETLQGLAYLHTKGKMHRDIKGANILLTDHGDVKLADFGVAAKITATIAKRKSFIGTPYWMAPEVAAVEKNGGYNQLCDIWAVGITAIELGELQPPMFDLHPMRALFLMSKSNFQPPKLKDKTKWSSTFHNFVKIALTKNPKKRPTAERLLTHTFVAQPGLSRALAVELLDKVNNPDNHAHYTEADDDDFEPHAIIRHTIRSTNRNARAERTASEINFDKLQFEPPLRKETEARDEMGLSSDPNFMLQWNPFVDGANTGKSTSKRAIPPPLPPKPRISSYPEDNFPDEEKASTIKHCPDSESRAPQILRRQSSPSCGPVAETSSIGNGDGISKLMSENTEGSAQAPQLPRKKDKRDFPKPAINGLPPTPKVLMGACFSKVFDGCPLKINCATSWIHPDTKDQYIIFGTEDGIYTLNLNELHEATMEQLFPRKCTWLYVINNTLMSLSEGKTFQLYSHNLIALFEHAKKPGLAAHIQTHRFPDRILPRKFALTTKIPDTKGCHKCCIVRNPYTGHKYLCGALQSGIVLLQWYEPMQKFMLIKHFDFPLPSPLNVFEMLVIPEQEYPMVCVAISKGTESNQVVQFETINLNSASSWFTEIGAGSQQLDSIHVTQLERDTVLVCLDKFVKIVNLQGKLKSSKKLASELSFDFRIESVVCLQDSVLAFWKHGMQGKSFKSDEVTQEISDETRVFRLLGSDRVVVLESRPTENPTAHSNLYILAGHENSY

[3] = biological target: Serine/threonine-protein kinase 10 (Homo sapiens, UniProt O94804)
Sequence of Serine/threonine-protein kinase 10 (O94804 whole entry): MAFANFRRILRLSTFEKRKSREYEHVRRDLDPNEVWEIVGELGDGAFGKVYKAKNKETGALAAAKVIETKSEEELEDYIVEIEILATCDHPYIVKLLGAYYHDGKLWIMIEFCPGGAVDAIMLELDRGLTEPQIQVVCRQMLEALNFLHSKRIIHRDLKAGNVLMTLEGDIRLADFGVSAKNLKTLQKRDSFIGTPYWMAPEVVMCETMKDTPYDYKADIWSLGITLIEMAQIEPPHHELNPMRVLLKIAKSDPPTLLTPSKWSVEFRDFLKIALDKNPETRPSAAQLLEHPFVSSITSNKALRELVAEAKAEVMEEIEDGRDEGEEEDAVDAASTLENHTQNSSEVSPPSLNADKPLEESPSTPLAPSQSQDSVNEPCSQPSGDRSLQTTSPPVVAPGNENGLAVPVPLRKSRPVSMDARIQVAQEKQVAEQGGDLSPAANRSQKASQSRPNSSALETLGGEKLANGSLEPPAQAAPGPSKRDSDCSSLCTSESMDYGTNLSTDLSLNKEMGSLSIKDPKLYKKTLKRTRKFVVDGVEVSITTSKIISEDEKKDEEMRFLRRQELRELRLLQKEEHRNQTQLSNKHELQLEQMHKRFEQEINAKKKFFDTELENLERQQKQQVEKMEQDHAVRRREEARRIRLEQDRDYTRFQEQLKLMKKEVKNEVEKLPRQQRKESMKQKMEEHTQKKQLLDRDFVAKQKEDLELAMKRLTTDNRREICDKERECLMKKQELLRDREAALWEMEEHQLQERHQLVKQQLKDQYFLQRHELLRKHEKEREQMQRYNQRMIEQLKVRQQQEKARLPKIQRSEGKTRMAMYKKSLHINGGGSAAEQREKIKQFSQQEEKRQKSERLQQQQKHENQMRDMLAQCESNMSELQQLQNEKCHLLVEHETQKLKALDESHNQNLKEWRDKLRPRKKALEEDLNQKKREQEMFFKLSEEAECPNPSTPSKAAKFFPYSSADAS

[4] = biological target: Tyrosine-protein kinase HCK (Homo sapiens, UniProt P08631)
Sequence of Tyrosine-protein kinase HCK (P08631 whole entry): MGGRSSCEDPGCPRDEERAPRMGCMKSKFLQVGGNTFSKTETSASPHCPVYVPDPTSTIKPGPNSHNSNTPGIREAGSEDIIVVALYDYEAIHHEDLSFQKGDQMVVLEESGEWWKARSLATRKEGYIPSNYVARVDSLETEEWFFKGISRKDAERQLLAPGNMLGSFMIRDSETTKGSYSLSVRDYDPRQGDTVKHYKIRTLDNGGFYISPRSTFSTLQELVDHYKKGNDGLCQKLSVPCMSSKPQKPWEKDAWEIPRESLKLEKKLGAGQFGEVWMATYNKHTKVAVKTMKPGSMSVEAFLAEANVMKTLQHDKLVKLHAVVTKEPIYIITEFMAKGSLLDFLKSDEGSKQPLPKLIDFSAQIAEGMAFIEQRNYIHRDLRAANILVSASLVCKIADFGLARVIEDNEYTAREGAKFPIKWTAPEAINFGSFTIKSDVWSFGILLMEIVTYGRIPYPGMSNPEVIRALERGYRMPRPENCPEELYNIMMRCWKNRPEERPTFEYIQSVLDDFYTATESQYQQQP

[5] = biological target: Tyrosine-protein kinase SYK (Homo sapiens, UniProt P43405)
[6] = biological target: Serine/threonine-protein kinase N2 (Homo sapiens, UniProt Q16513)
Sequence of Serine/threonine-protein kinase N2 (Q16513 whole entry): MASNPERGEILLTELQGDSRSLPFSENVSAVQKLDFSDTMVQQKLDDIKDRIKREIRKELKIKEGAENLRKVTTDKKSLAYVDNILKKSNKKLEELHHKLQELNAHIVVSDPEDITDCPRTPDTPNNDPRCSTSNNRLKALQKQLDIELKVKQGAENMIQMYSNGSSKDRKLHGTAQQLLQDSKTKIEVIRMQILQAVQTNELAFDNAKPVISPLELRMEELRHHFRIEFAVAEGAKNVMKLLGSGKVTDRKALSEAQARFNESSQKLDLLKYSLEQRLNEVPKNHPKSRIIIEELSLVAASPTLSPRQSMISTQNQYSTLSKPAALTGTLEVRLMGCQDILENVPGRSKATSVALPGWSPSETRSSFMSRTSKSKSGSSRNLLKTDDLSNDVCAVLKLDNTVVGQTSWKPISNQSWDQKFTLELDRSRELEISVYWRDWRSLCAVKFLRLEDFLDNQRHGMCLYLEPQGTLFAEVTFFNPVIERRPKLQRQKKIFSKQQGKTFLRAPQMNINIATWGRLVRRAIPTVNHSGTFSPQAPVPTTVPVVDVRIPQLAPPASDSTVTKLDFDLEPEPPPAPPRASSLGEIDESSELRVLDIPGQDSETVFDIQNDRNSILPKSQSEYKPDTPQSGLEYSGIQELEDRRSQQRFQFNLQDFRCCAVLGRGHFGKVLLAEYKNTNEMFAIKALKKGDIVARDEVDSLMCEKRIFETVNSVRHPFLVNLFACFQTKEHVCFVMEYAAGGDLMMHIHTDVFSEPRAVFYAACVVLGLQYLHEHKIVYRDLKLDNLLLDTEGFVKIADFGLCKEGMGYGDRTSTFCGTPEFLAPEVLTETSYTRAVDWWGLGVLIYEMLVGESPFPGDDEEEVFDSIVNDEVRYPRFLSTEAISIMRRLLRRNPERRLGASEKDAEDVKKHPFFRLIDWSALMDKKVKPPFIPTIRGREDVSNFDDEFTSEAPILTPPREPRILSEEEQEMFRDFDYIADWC

[7] = biological target: GTP-binding nuclear protein Ran (Homo sapiens, UniProt P62826)
[8] = biological target: T1, Ephrin type-B receptor 4 (Homo sapiens, UniProt P54760)
T1 sequence (P54760 whole entry): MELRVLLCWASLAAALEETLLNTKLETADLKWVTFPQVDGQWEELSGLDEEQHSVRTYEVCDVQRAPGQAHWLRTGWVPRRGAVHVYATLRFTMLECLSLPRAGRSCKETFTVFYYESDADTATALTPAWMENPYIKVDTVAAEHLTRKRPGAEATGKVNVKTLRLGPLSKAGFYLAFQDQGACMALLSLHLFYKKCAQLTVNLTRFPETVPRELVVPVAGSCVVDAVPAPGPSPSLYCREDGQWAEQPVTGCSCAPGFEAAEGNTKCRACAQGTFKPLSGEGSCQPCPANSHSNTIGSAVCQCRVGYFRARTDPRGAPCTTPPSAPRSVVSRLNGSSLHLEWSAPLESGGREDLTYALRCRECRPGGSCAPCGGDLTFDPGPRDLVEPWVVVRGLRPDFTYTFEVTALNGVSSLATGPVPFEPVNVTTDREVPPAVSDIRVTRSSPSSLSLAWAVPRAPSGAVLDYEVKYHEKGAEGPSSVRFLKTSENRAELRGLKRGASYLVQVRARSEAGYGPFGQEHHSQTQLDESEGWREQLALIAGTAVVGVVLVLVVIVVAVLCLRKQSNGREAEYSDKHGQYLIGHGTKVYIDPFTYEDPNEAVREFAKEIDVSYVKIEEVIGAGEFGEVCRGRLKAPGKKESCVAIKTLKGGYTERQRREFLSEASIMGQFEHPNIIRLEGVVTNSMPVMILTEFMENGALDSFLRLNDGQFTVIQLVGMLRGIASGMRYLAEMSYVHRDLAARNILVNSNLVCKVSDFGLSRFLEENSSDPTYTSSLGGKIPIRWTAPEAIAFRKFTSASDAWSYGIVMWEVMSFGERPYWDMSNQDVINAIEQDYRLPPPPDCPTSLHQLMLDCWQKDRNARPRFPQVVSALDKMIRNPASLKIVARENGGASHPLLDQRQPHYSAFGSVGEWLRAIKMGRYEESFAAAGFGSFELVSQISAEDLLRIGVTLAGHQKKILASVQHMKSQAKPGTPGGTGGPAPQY

[9] = biological target: T2, Phenylalanine--tRNA ligase beta subunit (Homo sapiens, UniProt Q9NSD9)
T2 sequence (Q9NSD9 whole entry): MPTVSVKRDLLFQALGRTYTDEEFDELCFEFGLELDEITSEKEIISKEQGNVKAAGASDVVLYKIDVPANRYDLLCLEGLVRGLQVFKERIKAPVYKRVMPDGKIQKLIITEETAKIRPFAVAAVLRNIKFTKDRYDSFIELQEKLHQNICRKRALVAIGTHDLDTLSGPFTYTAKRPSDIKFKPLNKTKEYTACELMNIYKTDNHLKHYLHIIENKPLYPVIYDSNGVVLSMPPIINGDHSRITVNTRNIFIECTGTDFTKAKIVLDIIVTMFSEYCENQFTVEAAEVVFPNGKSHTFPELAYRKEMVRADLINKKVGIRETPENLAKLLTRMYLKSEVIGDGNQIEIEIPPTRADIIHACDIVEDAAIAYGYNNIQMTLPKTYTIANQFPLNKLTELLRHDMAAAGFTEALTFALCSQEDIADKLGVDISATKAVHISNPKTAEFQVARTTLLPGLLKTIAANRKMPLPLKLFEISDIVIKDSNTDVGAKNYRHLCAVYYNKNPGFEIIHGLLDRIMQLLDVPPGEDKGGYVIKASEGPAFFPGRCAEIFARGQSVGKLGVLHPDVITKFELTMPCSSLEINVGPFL

[10] = biological target: T3, Signal recognition particle receptor subunit alpha (Homo sapiens, UniProt P08240)
T3 sequence (P08240 whole entry): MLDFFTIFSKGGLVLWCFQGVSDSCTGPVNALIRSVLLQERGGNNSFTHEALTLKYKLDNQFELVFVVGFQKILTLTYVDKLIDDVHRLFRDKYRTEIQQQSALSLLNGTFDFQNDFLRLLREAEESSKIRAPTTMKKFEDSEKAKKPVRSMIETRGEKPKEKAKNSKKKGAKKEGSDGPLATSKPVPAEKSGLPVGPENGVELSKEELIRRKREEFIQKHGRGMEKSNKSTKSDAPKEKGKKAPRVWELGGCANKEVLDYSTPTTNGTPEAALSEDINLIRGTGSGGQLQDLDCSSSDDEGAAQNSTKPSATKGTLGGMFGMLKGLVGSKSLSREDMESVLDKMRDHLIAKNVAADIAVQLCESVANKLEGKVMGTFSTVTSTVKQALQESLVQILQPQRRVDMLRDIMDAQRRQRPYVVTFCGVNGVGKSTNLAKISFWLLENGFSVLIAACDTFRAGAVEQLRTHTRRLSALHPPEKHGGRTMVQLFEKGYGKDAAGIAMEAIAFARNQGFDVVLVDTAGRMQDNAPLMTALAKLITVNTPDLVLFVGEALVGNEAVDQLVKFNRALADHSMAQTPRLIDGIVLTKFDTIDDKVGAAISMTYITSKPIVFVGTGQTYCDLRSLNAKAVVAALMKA
Note: in the data inactive means no Kd found up to 30 µM.

C[C@@H](Oc1cc(C(=O)Nc2ccc(C(=O)N3CCN(C)CC3)cc2)nnc1N)c1c(Cl)ccc(F)c1Cl
Kd [1]: > 30 µM (inactive)
Kd [2]: 20.9 µM (active)
Kd [3]: > 30 µM (inactive)
Kd [4]: > 30 µM (inactive)
Kd [5]: > 30 µM (inactive)
Kd [6]: > 30 µM (inactive)
Kd [7]: > 30 µM (inactive)
Kd [8]: > 30 µM (inactive)
Kd [9]: > 30 µM (inactive)
Kd [10]: > 30 µM (inactive)

CCNC(=O)C#Cc1ccc2c(c1)NC(=O)/C2=C(\Nc1ccc(CN(C)C)cc1)c1ccccc1
Kd [1]: > 30 µM (inactive)
Kd [2]: 1.36 µM (active)
Kd [3]: 0.136 µM (active)
Kd [4]: 0.9 µM (active)
Kd [5]: > 30 µM (inactive)
Kd [6]: > 30 µM (inactive)
Kd [7]: > 30 µM (inactive)
Kd [8]: > 30 µM (inactive)
Kd [9]: > 30 µM (inactive)
Kd [10]: > 30 µM (inactive)

C=CC(=O)N1CCC[C@H](n2c(=O)n(-c3ccc(Oc4ccccc4)cc3)c3c(N)ncnc32)C1
Kd [1]: > 30 µM (inactive)
Kd [2]: > 30 µM (inactive)
Kd [3]: > 30 µM (inactive)
pKd [4]: 8.22
Kd [5]: > 30 µM (inactive)
Kd [6]: > 30 µM (inactive)
Kd [7]: > 30 µM (inactive)
Kd [8]: > 30 µM (inactive)
Kd [9]: > 30 µM (inactive)
Kd [10]: > 30 µM (inactive)

COCc1c(-c2ccc(NC(=O)Nc3cc(C(F)(F)F)ccc3F)c(F)c2)c2c(N)ncnn2c1CN1CCOCC1
Kd [1]: > 30 µM (inactive)
Kd [2]: > 30 µM (inactive)
Kd [3]: > 30 µM (inactive)
Kd [4]: > 30 µM (inactive)
Kd [5]: > 30 µM (inactive)
Kd [6]: > 30 µM (inactive)
Kd [7]: > 30 µM (inactive)
Kd [8]: > 30 µM (inactive)
Kd [9]: > 30 µM (inactive)
Kd [10]: > 30 µM (inactive)

Cc1nc(NC(=O)N2CCC[C@H]2C(N)=O)sc1-c1ccnc(C(C)(C)C(F)(F)F)c1 [ALPELISIB]
Kd [1]: > 30 µM (inactive)
Kd [2]: > 30 µM (inactive)
Kd [3]: > 30 µM (inactive)
Kd [4]: > 30 µM (inactive)
Kd [5]: > 30 µM (inactive)
Kd [6]: > 30 µM (inactive)
Kd [7]: > 30 µM (inactive)
Kd [8]: > 30 µM (inactive)
Kd [9]: > 30 µM (inactive)
Kd [10]: > 30 µM (inactive)

Cc1csc(-c2nnc(Nc3ccc(Oc4ncccc4-c4ccnc(N)n4)cc3)c3ccccc23)c1 [AMG-900]
Kd [1]: > 30 µM (inactive)
Kd [2]: 1.71 µM (active)
Kd [3]: > 30 µM (inactive)
Kd [4]: > 30 µM (inactive)
Kd [5]: > 30 µM (inactive)
Kd [6]: > 30 µM (inactive)
Kd [7]: > 30 µM (inactive)
Kd [8]: > 30 µM (inactive)
Kd [9]: > 30 µM (inactive)
Kd [10]: > 30 µM (inactive)

C=CC(=O)Nc1cc2c(Nc3ccc(F)c(Cl)c3)ncnc2cc1C#CC(C)(C)N1CCN(C)CC1 [AV-412 FREE BASE]
Kd [1]: > 30 µM (inactive)
Kd [2]: > 30 µM (inactive)
Kd [3]: 28.6 µM (active)
Kd [4]: > 30 µM (inactive)
Kd [5]: > 30 µM (inactive)
Kd [6]: > 30 µM (inactive)
Kd [7]: > 30 µM (inactive)
Kd [8]: > 30 µM (inactive)
Kd [9]: > 30 µM (inactive)
Kd [10]: > 30 µM (inactive)

COc1cc([C@@H]2c3cc4c(cc3[C@H](O)[C@H]3COC(=O)[C@@H]23)OCO4)cc(OC)c1OC [AXL-1717]
Kd [1]: > 30 µM (inactive)
Kd [2]: > 30 µM (inactive)
Kd [3]: > 30 µM (inactive)
Kd [4]: > 30 µM (inactive)
Kd [5]: > 30 µM (inactive)
Kd [6]: > 30 µM (inactive)
Kd [7]: > 30 µM (inactive)
Kd [8]: > 30 µM (inactive)
Kd [9]: > 30 µM (inactive)
Kd [10]: > 30 µM (inactive)

NC(=O)Nc1cc(-c2cccc(F)c2)sc1C(=O)N[C@H]1CCCNC1 [AZD-7762]
Kd [1]: > 30 µM (inactive)
Kd [2]: 0.197 µM (active)
Kd [3]: 0.36 µM (active)
Kd [4]: 0.103 µM (active)
Kd [5]: 1.48 µM (active)
Kd [6]: 3.1 µM (active)
Kd [7]: > 30 µM (inactive)
Kd [8]: > 30 µM (inactive)
Kd [9]: > 30 µM (inactive)
Kd [10]: > 30 µM (inactive)

Cc1cc(C(=O)NOCCO)c(Nc2ccc(I)cc2F)n(C)c1=O [AZD-8330]
Kd [1]: > 30 µM (inactive)
Kd [2]: > 30 µM (inactive)
Kd [3]: > 30 µM (inactive)
Kd [4]: > 30 µM (inactive)
Kd [5]: > 30 µM (inactive)
Kd [6]: > 30 µM (inactive)
Kd [7]: > 30 µM (inactive)
Kd [8]: > 30 µM (inactive)
Kd [9]: > 30 µM (inactive)
Kd [10]: > 30 µM (inactive)

Cn1cnc2c(F)c(Nc3ccc(Br)cc3F)c(C(=O)NOCCO)cc21 [BINIMETINIB]
Kd [1]: > 30 µM (inactive)
Kd [2]: > 30 µM (inactive)
Kd [3]: > 30 µM (inactive)
Kd [4]: > 30 µM (inactive)
Kd [5]: > 30 µM (inactive)
Kd [6]: > 30 µM (inactive)
Kd [7]: > 30 µM (inactive)
Kd [8]: > 30 µM (inactive)
Kd [9]: > 30 µM (inactive)
Kd [10]: > 30 µM (inactive)

CCn1c(C(=O)N(C2CC2)C2CC2)cc2c3c(ncn3C)c(Nc3cc(C)n(C)n3)nc21 [BMS-911543]
Kd [1]: > 30 µM (inactive)
Kd [2]: > 30 µM (inactive)
Kd [3]: > 30 µM (inactive)
Kd [4]: > 30 µM (inactive)
Kd [5]: > 30 µM (inactive)
Kd [6]: > 30 µM (inactive)
Kd [7]: > 30 µM (inactive)
Kd [8]: > 30 µM (inactive)
Kd [9]: > 30 µM (inactive)
Kd [10]: > 30 µM (inactive)

COc1cc2ncnc(Oc3cccc(NC(=O)Nc4cc(C(C)(C)C(F)(F)F)on4)c3)c2cc1OC [CEP-32496]
Kd [1]: > 30 µM (inactive)
Kd [2]: 20.1 µM (active)
Kd [3]: > 30 µM (inactive)
Kd [4]: > 30 µM (inactive)
Kd [5]: > 30 µM (inactive)
Kd [6]: > 30 µM (inactive)
Kd [7]: > 30 µM (inactive)
Kd [8]: 9.82 µM (active)
Kd [9]: > 30 µM (inactive)
Kd [10]: > 30 µM (inactive)

Cc1cc(Nc2ncc(Cl)c(Nc3ccccc3S(=O)(=O)C(C)C)n2)c(OC(C)C)cc1C1CCNCC1 [CERITINIB]
Kd [1]: > 30 µM (inactive)
Kd [2]: > 30 µM (inactive)
Kd [3]: > 30 µM (inactive)
Kd [4]: > 30 µM (inactive)
Kd [5]: > 30 µM (inactive)
Kd [6]: > 30 µM (inactive)
Kd [7]: > 30 µM (inactive)
Kd [8]: > 30 µM (inactive)
Kd [9]: > 30 µM (inactive)
Kd [10]: > 30 µM (inactive)

COc1c(OCCCN2CCOCC2)ccc2c1N=C(NC(=O)c1cnc(N)nc1)N1CCN=C21 [COPANLISIB]
Kd [1]: > 30 µM (inactive)
Kd [2]: > 30 µM (inactive)
Kd [3]: > 30 µM (inactive)
Kd [4]: > 30 µM (inactive)
Kd [5]: > 30 µM (inactive)
Kd [6]: > 30 µM (inactive)
Kd [7]: > 30 µM (inactive)
Kd [8]: > 30 µM (inactive)
Kd [9]: > 30 µM (inactive)
Kd [10]: > 30 µM (inactive)
